What was measured:
Type in all cases: biochemical
FAAH [1] = target: T1, FAAH (Mus musculus, UniProt O08914); experiment: In vitro competitive ABPP, % inhibition at fixed concentration, FAAH; design: from tissue
T1 sequence (O08914 1-579): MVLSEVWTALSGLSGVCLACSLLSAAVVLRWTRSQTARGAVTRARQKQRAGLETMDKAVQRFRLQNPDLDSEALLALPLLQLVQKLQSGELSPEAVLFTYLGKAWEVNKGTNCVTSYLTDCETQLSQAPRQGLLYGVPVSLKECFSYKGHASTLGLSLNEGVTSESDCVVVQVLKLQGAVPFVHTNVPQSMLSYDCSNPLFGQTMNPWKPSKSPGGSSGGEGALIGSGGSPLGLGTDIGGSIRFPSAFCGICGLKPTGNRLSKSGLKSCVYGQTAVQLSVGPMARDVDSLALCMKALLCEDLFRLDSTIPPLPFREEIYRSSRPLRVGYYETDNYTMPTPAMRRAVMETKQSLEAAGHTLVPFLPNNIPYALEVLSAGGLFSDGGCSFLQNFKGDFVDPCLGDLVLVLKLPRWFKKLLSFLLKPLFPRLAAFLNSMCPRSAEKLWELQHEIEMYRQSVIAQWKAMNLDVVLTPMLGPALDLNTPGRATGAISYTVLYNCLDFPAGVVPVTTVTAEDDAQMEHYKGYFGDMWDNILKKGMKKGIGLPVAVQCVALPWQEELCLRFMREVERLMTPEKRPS
Method: (§1) In Vitro Competitive Activity-Based Protein Profiling.
(§2) Proteomes (mouse brain membrane fraction or cell lysates) (50 μL, 1.0 mg/ml total protein concentration) were preincubated with varying concentrations of inhibitors at 37° C. After 30 min, FP-Rh (1.0 μL, 50 μM in DMSO) was added and the mixture was incubated for another 30 min at 37° C. Reactions were quenched with SDS loading buffer (50 μL—4×) and run on SDS-PAGE. Following gel imaging, serine hydrolase activity was determined by measuring fluorescent intensity of gel bands corresponding to MAGL, ABHD6 and FAAH using ImageJ 1.43u software.

ABHD6 [2] = target: T2, ABHD6 (Mus musculus, UniProt Q8R2Y0); experiment: In vitro competitive ABPP, % inhibition at fixed concentration, ABHD6; design: from tissue
T2 sequence (Q8R2Y0 1-336): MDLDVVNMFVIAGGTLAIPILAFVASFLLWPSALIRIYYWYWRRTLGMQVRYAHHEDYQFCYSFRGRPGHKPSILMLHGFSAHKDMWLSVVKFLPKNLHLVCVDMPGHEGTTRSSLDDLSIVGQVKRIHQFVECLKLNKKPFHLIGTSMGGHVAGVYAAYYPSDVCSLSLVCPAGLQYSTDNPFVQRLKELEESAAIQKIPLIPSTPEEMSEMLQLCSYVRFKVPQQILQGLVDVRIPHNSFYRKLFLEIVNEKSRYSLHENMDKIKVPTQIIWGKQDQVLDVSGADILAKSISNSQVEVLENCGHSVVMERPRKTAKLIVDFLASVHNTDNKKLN
Method: as §1, §2

MAGL [3] = target: T3, MAGL (Mus musculus, UniProt O35678); experiment: In vitro competitive ABPP, % inhibition at fixed concentration, MAGL; design: from tissue
T3 sequence (O35678 1-303): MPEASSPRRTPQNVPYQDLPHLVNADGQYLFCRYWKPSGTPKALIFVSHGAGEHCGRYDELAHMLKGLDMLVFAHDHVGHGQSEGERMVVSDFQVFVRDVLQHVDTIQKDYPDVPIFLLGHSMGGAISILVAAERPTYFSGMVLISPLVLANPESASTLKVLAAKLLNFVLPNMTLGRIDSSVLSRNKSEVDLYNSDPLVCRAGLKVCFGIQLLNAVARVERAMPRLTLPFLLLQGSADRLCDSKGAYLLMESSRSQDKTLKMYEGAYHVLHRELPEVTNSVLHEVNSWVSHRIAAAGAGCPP
Method: as §1, §2

MAGL [4] = target: T3, MAGL; experiment: In vitro competitive activity-based protein profiling (FP-Rh), mouse MAGL; design: from tissue; host or cells: mouse brain membrane fraction; conditions: 30 min preincubation at 37° C.
Method: as §1
(§3) Proteomes (mouse brain membrane fraction or cell lysates) (50 μL, 1.0 mg/ml total protein concentration) were preincubated with varying concentrations of inhibitors at 37° C. After 30 min, FP-Rh (1.0 μL, 50 μM in DMSO) was added and the mixture was incubated for another 30 min at 37° C. Reactions were quenched with SDS loading buffer (50 μL—4×) and run on SDS-PAGE.

FAAH [5] = target: T1, FAAH; experiment: In vitro competitive activity-based protein profiling (FP-Rh), mouse FAAH; design: from tissue; host or cells: mouse brain membrane fraction; conditions: 30 min preincubation at 37° C.
Method: as §1, §3

ABHD6 [6] = target: T2, ABHD6; experiment: In vitro competitive activity-based protein profiling (FP-Rh), mouse ABHD6; design: from tissue; host or cells: mouse brain membrane fraction; conditions: 30 min preincubation at 37° C.
Method: as §1, §3

Structure (SMILES) | inhibition at 1 µM (FAAH [1]) [%] | inhibition at 1 µM (ABHD6 [2]) [%] | inhibition at 1 µM (MAGL [3]) [%] | other results
Cc1cc(-c2ccncc2C)ccc1CN1CCN(C(=O)ON2C(=O)CCC2=O)CC1 [Example 171, 2,5-Dioxopyrrolidin-1-yl 4-{[2-methyl-4-(3-methylpyridin-4-yl)phenyl]methyl}piperazine-1-carboxylate] | < 25 | 25 to 75 | 25 to 75 | 
O=C(ON1C(=O)CCC1=O)N1CCN(C(c2ccc3c(c2)COC3)c2ccc3c(c2)COC3)CC1 [Example 157, 2,5-Dioxopyrrolidin-1-yl 4-[bis(1,3-dihydro-2-benzofuran-5-yl)methyl]piperazine-1-carboxylate] | < 25 | 25 to 75 | 25 to 75 | 
Cc1cccc(-c2ccc(CN3CCN(C(=O)ON4C(=O)CCC4=O)CC3)nc2C)c1 [Example 180, 2,5-Dioxopyrrolidin-1-yl 4-{[6-methyl-5-(3-methylphenyl)pyridin-2-yl]methyl}piperazine-1-carboxylate] | < 25 | > 75 | > 75 | 
O=C(ON1C(=O)CCC1=O)N1CCC(N2CCCCC2)CC1 [Example 218, 2,5-Dioxopyrrolidin-1-yl 4-(piperidine-1-yl)piperidine-1-carboxylate] |  |  |  | inhibition at 10 µM (FAAH [1]): < 25%; inhibition at 10 µM (ABHD6 [2]): < 25%; inhibition at 10 µM (MAGL [3]): < 25%
C[C@H]1CN(Cc2ccc(N3CCOCC3)cc2OC(F)(F)F)CCN1C(=O)ON1C(=O)CCC1=O [Example 90, 2,5-Dioxopyrrolidin-1-yl (2S)-2-methyl-4-{[4-(morpholin-4-yl)-2-(trifluoromethoxy)phenyl]methyl}piperazine-1-carboxylate] | < 25 | 25 to 75 | 25 to 75 | 
O=C(ON1C(=O)CCC1=O)N1CCN(C(c2cccnc2)c2cccnc2)CC1 [Example 155, 2,5-Dioxopyrrolidin-1-yl 4-(di(pyridin-3-yl)methyl)piperazine-1-carboxylate] | < 25 | < 25 | 25 to 75 | 
Cc1c(CN2CCN(C(=O)ON3C(=O)CCC3=O)CC2)cccc1C(=O)N1CCOCC1 [Example 205, 2,5-Dioxopyrrolidin-1-yl 4-{[2-methyl-3-(morpholine-4-carbonyl)phenyl]methyl}piperazine-1-carboxylate] | < 25 | > 75 | < 25 | 
Cc1nc(CN2CCN(C(=O)ON3C(=O)CCC3=O)CC2)ccc1-c1cccc(F)c1 [Example 181, 2,5-Dioxopyrrolidin-1-yl 4-{[5-(3-fluorophenyl)-6-methylpyridin-2-yl]methyl}piperazine-1-carboxylate] | < 25 | < 25 | 25 to 75 | 
C[C@@H]1CN(Cc2ccc(N3CCOCC3)cc2Cl)CCN1C(=O)ON1C(=O)CCC1=O [Example 96, 2,5-Dioxopyrrolidin-1-yl (2R)-4-{[2-chloro-4-(morpholin-4-yl)phenyl]methyl}-2-methylpiperazine-1-carboxylate] | < 25 | < 25 | < 25 | 
O=C(ON1C(=O)CCC1=O)N1CCN(Cc2ccc(C(=O)N3CCCC3)cc2Cl)CC1 [Example 193, 2,5-Dioxopyrrolidin-1-yl 4-{[2-chloro-4-(pyrrolidine-1-carbonyl)phenyl]methyl}piperazine-1-carboxylate] | < 25 | 25 to 75 | 25 to 75 | 
O=C(ON1C(=O)CCC1=O)N1CCN(Cc2ccc(Cl)cc2C(=O)N2CCC2)CC1 [Example 197, 2,5-Dioxopyrrolidin-1-yl 4-{[2-(azetidine-1-carbonyl)-4-chlorophenyl]methyl}piperazine-1-carboxylate] | < 25 | < 25 | < 25 | 
Cc1cccc(-c2ccc(CN3CCN(C(=O)ON4C(=O)CCC4=O)CC3)c(C)n2)c1 [Example 184, 2,5-Dioxopyrrolidin-1-yl 4-{[2-methyl-6-(3-methylphenyl)pyridin-3-yl]methyl}piperazine-1-carboxylate] | < 25 | 25 to 75 | > 75 | 
Cc1ncccc1-c1ccc(CN2CCN(C(=O)ON3C(=O)CCC3=O)CC2)c(F)c1 [Example 174, 2,5-Dioxopyrrolidin-1-yl 4-{[2-fluoro-4-(2-methylpyridin-3-yl)phenyl]methyl}piperazine-1-carboxylate] | < 25 | 25 to 75 | 25 to 75 | 
COc1ccc(-c2cc(CN3CCN(C(=O)ON4C(=O)CCC4=O)CC3)no2)cc1 [Example 136, 2,5-Dioxopyrrolidin-1-yl 4-((5-(4-methoxyphenyl)isoxazol-3-yl)methyl)piperazine-1-carboxylate] | < 25 | 25 to 75 | 25 to 75 | 
O=C(ON1C(=O)CCC1=O)N1CCN(Cc2cc(C(F)(F)F)ccc2N2CCCC2)CC1 [Example 120, 2,5-Dioxopyrrolidin-1-yl 4-{[2-(pyrrolidin-1-yl)-5-(trifluoromethyl)phenyl]methyl}piperazine-1-carboxylate] | < 25 | 25 to 75 | > 75 | 
O=C(ON1C(=O)CCC1=O)N1CCN(C(=O)c2cccc(Cl)c2)CC1 [Example 211, 2,5-Dioxopyrrolidin-1-yl 4-(3-chlorobenzoyl)piperazine-1-carboxylate] |  |  |  | inhibition at 10 µM (FAAH [1]): < 25%; inhibition at 10 µM (ABHD6 [2]): 25 to 75%; inhibition at 10 µM (MAGL [3]): 25 to 75%
O=C(ON1C(=O)CCC1=O)N1CCN(Cc2ccc(Cl)cc2N2CCOCC2)CC1 [Example 69, 2,5-Dioxopyrrolidin-1-yl 4-(4-chloro-2-morpholinobenzyl)piperazine-1-carboxylate] |  |  |  | IC50 (MAGL [4]; Table 2, mouse proteome): < 100 nM; IC50 (FAAH [5]; Table 2, mouse proteome): 1000 to 10000 nM; IC50 (ABHD6 [6]; Table 2, mouse proteome): 100 to 1000 nM
O=C(ON1C(=O)CCC1=O)N1CCN(Cc2ccc(N3CCCC3)cc2Cl)CC1 [Example 78, 2,5-Dioxopyrrolidin-1-yl 4-(2-chloro-4-(pyrrolidin-1-yl)benzyl)piperazine-1-carboxylate] |  |  |  | IC50 (MAGL [4]; Table 2, mouse proteome): < 100 nM; IC50 (FAAH [5]; Table 2, mouse proteome): 1000 to 10000 nM; IC50 (ABHD6 [6]; Table 2, mouse proteome): < 100 nM
CCCCCCCC/C=C\CCCCCCCCNC(=O)ON1C(=O)CCC1=O [Example 31, 2,5-Dioxopyrrolidin-1-yl N-[(9Z)-octadec-9-en-1-yl]carbamate] |  |  |  | IC50 (MAGL [4]; Table 1, mouse proteome): 1000 to 10000 nM; IC50 (FAAH [5]; Table 1, mouse proteome): 1000 to 10000 nM; IC50 (ABHD6 [6]; Table 1, mouse proteome): 1000 to 10000 nM
COc1ccc(N2CCN(C(=O)ON3C(=O)C4CCCCC4C3=O)CC2)cc1 (stereo not drawn) [Example 53, 1,3-Dioxohexahydro-1H-isoindol-2(3H)-yl 4-(4-methoxyphenyl)piperazine-1-carboxylate] |  |  |  | IC50 (MAGL [4]; Table 1, mouse proteome): > 10000 nM; IC50 (FAAH [5]; Table 1, mouse proteome): > 10000 nM; IC50 (ABHD6 [6]; Table 1, mouse proteome): < 100 nM
O=C(ON1C(=O)CCC1=O)N1CCN(Cc2cccc(Cl)c2N2CCOCC2)CC1 [Example 82, 2,5-Dioxopyrrolidin-1-yl 4-{[3-chloro-2-(morpholin-4-yl)phenyl]methyl}piperazine-1-carboxylate] |  |  |  | IC50 (MAGL [4]; Table 2, mouse proteome): 100 to 1000 nM; IC50 (FAAH [5]; Table 2, mouse proteome): > 10000 nM; IC50 (ABHD6 [6]; Table 2, mouse proteome): 1000 to 10000 nM

Reference: patent US9567302B2, “Carbamate compounds and of making and using same” (Abide Therapeutics, Inc., priority 2012, dated 2017)
